Results from patent US9409966B2, “Glucagon-like peptide-1 derivatives and their pharmaceutical use” (priority 2007, dated 2016).
*1 amine or outer side, *2 acyl side, *3 side chain or, on linkers, in order; H or OH if unused. Where a SMILES comes first, the peptide text is derived from it. Side-chain parts run from the residue outwards. [ ]: non-standard residue; d: D form. The star is where a group is joined. C20 diacid = O=C(O)CCCCCCCCCCCCCCCCCCC(=O)*; C18 diacid = O=C(O)CCCCCCCCCCCCCCCCC(=O)*; γGlu = O=C(O)[C@H](CCC(=O)[*:2])N[*:1]; Desaminohistidyl = O=C(CCc1c[nH]cn1)*; Trx = NC[C@H]1CC[C@H](C(=O)O)CC1; NTA = O=C(O)CN(CC(=O)O)CC(=O)*; Dap = NC[C@H](N)C(=O)O; AEEA = NCCOCCOCC(=O)O; Aib = CC(C)(N)C(=O)O

Key:
[1] = molecular target: T1, human GLP-1 receptor (Homo sapiens, UniProt P43220); assay: Stimulation of cAMP formation in a cell line expressing the cloned human GLP-1 receptor; type: biochemical; settings: cAMP production, purified plasma membranes from BHK467-12A (tk-ts13), AlphaScreen cAMP Assay Kit; read-out: Potency [EC50/nM]
T1 construct: expressed in transfected cells; host or cells: BHK467-12A (tk-ts13) baby hamster kidney cells; purified plasma membranes
T1 sequence (P43220 24-463): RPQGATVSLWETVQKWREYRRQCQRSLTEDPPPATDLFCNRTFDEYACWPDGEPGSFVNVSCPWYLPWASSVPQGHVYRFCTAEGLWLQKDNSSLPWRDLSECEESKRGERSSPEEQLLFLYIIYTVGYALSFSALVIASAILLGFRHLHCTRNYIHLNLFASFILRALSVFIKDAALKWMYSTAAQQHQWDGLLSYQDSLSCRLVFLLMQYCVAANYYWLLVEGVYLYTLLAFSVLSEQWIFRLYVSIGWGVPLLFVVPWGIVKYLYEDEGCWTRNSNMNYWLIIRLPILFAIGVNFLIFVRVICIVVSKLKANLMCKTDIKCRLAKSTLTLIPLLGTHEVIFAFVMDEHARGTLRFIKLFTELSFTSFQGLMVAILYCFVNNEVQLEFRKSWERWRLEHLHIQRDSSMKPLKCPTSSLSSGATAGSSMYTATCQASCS

[2] = molecular target: human serum albumin (HSA) (Homo sapiens, UniProt P02768); assay: Albumin binding affinity, competition scintillation proximity assay (SPA)
Sequence of human serum albumin (HSA) (P02768 25-609): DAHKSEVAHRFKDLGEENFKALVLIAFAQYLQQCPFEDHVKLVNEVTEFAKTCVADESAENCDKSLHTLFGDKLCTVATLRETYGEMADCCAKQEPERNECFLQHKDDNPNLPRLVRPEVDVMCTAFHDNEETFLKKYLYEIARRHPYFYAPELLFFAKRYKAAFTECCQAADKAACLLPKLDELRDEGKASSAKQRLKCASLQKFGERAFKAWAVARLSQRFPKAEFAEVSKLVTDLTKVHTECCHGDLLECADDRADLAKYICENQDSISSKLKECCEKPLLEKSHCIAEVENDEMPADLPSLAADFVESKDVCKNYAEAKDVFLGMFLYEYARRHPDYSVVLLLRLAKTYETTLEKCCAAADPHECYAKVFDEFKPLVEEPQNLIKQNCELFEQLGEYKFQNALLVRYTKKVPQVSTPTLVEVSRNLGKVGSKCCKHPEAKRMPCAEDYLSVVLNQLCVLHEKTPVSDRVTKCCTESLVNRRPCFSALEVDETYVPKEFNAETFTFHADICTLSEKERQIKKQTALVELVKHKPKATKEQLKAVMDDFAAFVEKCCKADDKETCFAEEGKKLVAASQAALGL
Protocol: Streptavidin-SPA beads (GE Healthcare RPNQ0009) were incubated with biotinylated HSA for 5 hours. The beads were washed with buffer to remove unbound HSA. […] After 20 hours of gentle rocking at room temperature the plates were centrifuged and counted on a TopCounter.

SMILES | EC50 [1] [nM] | EC50 [2] [nM]
CC[C@H](C)[C@H](NC(=O)[C@H](Cc1ccccc1)NC(=O)[C@H](CCC(=O)O)NC(=O)[C@H](CCCNC(=N)N)NC(=O)[C@H](C)NC(=O)[C@H](C)NC(=O)[C@H](CCC(N)=O)NC(=O)[C@H](CCC(=O)O)NC(=O)[C@H](CCC(=O)O)NC(=O)[C@H](CC(C)C)NC(=O)[C@H](Cc1ccc(O)cc1)NC(=O)[C@H](CO)NC(=O)[C@H](CO)NC(=O)[C@@H](NC(=O)[C@H](CC(=O)O)NC(=O)[C@H](CO)NC(=O)[C@@H](NC(=O)[C@H](Cc1ccccc1)NC(=O)[C@@H](NC(=O)CNC(=O)[C@H](CCC(=O)O)NC(=O)[C@H](C)NC(=O)CCc1c[nH]cn1)[C@@H](C)O)[C@@H](C)O)C(C)C)C(=O)N[C@@H](CCC(=O)O)C(=O)N[C@@H](Cc1c[nH]c2ccccc12)C(=O)N[C@@H](CC(C)C)C(=O)N[C@H](C(=O)N[C@@H](CCCNC(=N)N)C(=O)NCC(=O)N[C@@H](CCCNC(=N)N)C(=O)N[C@@H](CCCCNC(=O)COCCOCCNC(=O)COCCOCCNC(=O)CC[C@H](NC(=O)[C@H]1CC[C@H](CNC(=O)CCCCCCCCCCCCCCCCCCC(=O)O)CC1)C(=O)O)C(=O)O)C(C)C [Example 10, N-epsilon37-[2-(2-{2-[2-(2-{2-[(S)-4-Carboxy-4-({trans-4-[(19-carboxy-nonadecanoylamino)methyl]cyclohexanecarbonyl}amino)butyrylamino]ethoxy}ethoxy)acetylamino]ethoxy}ethoxy)acetyl][DesaminoHis7,Glu22,Arg26,Glu30,Arg34,Lys37]GLP-1-(7-37)] (Desaminohistidyl-AEGTFTSDVSSYLEEQAAREFIEWLVRGRK([AEEA-AEEA-γGlu-Trx-C20 diacid])-OH) | 0.66 | –
CCCCCCCCCCCCCCCCOCCOCCOCCOCCOCCOCCC(=O)NCCCC[C@H](NC(=O)[C@H](CCCNC(=N)N)NC(=O)CNC(=O)[C@H](CCCNC(=N)N)NC(=O)[C@@H](NC(=O)[C@H](CC(C)C)NC(=O)[C@H](Cc1c[nH]c2ccccc12)NC(=O)[C@H](C)NC(=O)[C@@H](NC(=O)[C@H](Cc1ccccc1)NC(=O)[C@H](CCC(=O)O)NC(=O)[C@H](CCCNC(=N)N)NC(=O)[C@H](C)NC(=O)[C@H](C)NC(=O)[C@H](CCC(N)=O)NC(=O)[C@H](CCC(=O)O)NC(=O)[C@H](CCC(=O)O)NC(=O)[C@H](CC(C)C)NC(=O)[C@H](Cc1ccc(O)cc1)NC(=O)[C@H](CO)NC(=O)[C@H](CO)NC(=O)[C@@H](NC(=O)[C@H](CC(=O)O)NC(=O)[C@H](CO)NC(=O)[C@@H](NC(=O)[C@H](Cc1ccccc1)NC(=O)[C@@H](NC(=O)CNC(=O)[C@H](CCC(=O)O)NC(=O)[C@H](C)NC(=O)CCc1c[nH]cn1)[C@@H](C)O)[C@@H](C)O)C(C)C)[C@@H](C)CC)C(C)C)C(N)=O [Example 16, N-epsilon37 (3-((2-(2-(2-(2-(2-Hexadecyloxyethoxy)ethoxy)ethoxy)ethoxy)ethoxy))propionyl)[DesaminoHis7,Glu22,Arg26,Arg34,Lys37]GLP-1(7-37)-amide] | 0.15 | –
CCCCCCCCCCCCCCCCCC(=O)NCCOCCOCC(=O)NCCOCCOCC(=O)NCCOCCOCC(=O)NCCCC[C@H](NC(=O)[C@H](CCCNC(=N)N)NC(=O)CNC(=O)[C@H](CCCNC(=N)N)NC(=O)[C@@H](NC(=O)[C@H](CC(C)C)NC(=O)[C@H](Cc1c[nH]c2ccccc12)NC(=O)[C@H](C)NC(=O)[C@@H](NC(=O)[C@H](Cc1ccccc1)NC(=O)[C@H](CCC(=O)O)NC(=O)[C@H](CCCNC(=N)N)NC(=O)[C@H](C)NC(=O)[C@H](C)NC(=O)[C@H](CCC(N)=O)NC(=O)[C@H](CCC(=O)O)NC(=O)[C@H](CCC(=O)O)NC(=O)[C@H](CC(C)C)NC(=O)[C@H](Cc1ccc(O)cc1)NC(=O)[C@H](CO)NC(=O)[C@H](CO)NC(=O)[C@@H](NC(=O)[C@H](CC(=O)O)NC(=O)[C@H](CO)NC(=O)[C@@H](NC(=O)[C@H](Cc1ccccc1)NC(=O)[C@@H](NC(=O)CNC(=O)[C@H](CCC(=O)O)NC(=O)[C@H](C)NC(=O)CCc1c[nH]cn1)[C@@H](C)O)[C@@H](C)O)C(C)C)[C@@H](C)CC)C(C)C)C(N)=O [Example 19, N-epsilon37-(2-(2-(2-(2-(2-(2-(2-(2-(2-(Octadecanoylamino)ethoxy)ethoxy)acetylamino)ethoxy)ethoxy)acetylamino)ethoxy)ethoxy)acetyl)[desaminoHis7,Glu22,Arg26,Arg34,Lys37] GLP-1 (7-37)amide] | 0.05 | –
CC[C@H](C)[C@H](NC(=O)[C@H](Cc1ccccc1)NC(=O)[C@H](CCC(=O)O)NC(=O)[C@H](CCCNC(=N)N)NC(=O)[C@H](C)NC(=O)[C@H](C)NC(=O)[C@H](CCC(N)=O)NC(=O)[C@H](CCC(=O)O)NC(=O)[C@H](CCC(=O)O)NC(=O)[C@H](CC(C)C)NC(=O)[C@H](Cc1ccc(O)cc1)NC(=O)[C@H](CO)NC(=O)[C@H](CO)NC(=O)[C@@H](NC(=O)[C@H](CC(=O)O)NC(=O)[C@H](CO)NC(=O)[C@@H](NC(=O)[C@H](Cc1ccccc1)NC(=O)[C@@H](NC(=O)CNC(=O)[C@H](CCC(=O)O)NC(=O)C(C)(C)NC(=O)[C@@H](N)Cc1c[nH]cn1)[C@@H](C)O)[C@@H](C)O)C(C)C)C(=O)N[C@@H](C)C(=O)N[C@@H](Cc1c[nH]c2ccccc12)C(=O)N[C@@H](CC(C)C)C(=O)N[C@H](C(=O)N[C@@H](CCCNC(=N)N)C(=O)NC(C)(C)C(=O)N[C@@H](CCCNC(=N)N)C(=O)N[C@@H](CCCCNC(=O)COCCOCCNC(=O)COCCOCCNC(=O)CC[C@H](NC(=O)CCCCCCCCCCCCCCCCC(=O)O)C(=O)O)C(=O)O)C(C)C [Example 33, N-epsilon37-[2-(2-{2-[2-(2-{2-[(S)-4-carboxy-4-(17-carboxy-heptadecanoylamino)-butyrylamino]-ethoxy}-ethoxy)-acetylamino]-ethoxy}-ethoxy)-acetyl]-[Aib8,Glu22, Arg26,Arg34, Aib35, Lys37]GLP-1-(7-37)] (H-H[Aib]EGTFTSDVSSYLEEQAAREFIAWLVR[Aib]RK([AEEA-AEEA-γGlu-C18 diacid])-OH) | – | 100 to 150
CC[C@H](C)[C@H](NC(=O)[C@H](Cc1ccccc1)NC(=O)[C@H](CCC(=O)O)NC(=O)[C@H](CCCNC(=N)N)NC(=O)[C@@H](NC(=O)[C@H](C)NC(=O)[C@H](CCC(N)=O)NC(=O)[C@H](CCC(=O)O)NC(=O)[C@H](CCC(=O)O)NC(=O)[C@H](CC(C)C)NC(=O)[C@H](Cc1ccc(O)cc1)NC(=O)[C@H](CO)NC(=O)[C@H](CO)NC(=O)[C@@H](NC(=O)[C@H](CC(=O)O)NC(=O)[C@H](CO)NC(=O)[C@@H](NC(=O)[C@H](Cc1ccccc1)NC(=O)[C@@H](NC(=O)CNC(=O)[C@H](CCC(=O)O)NC(=O)C(C)(C)NC(=O)[C@@H](N)Cc1c[nH]cn1)[C@@H](C)O)[C@@H](C)O)C(C)C)C(C)C)C(=O)N[C@@H](C)C(=O)N[C@@H](CCCCNC(=O)COCCOCCNC(=O)COCCOCCNC(=O)CC[C@H](NC(=O)CCCCCCCCCCCCCCCCC(=O)O)C(=O)O)C(=O)N[C@@H](CC(C)C)C(=O)N[C@H](C(=O)N[C@@H](CCCCN)C(=O)N[C@@H](CCCCN)C(=O)N[C@@H](CCCCN)C(N)=O)C(C)C [Example 36, N-epsilon31-[2-(2-{2-[2-(2-{2-[(S)-4-Carboxy-4-(17-carboxyheptadecanoylamino)butyrylamino]ethoxy}ethoxy)acetylamino]ethoxy}ethoxy)acetyl][Aib8,Glu22,Val25,Arg26,Lys31,Lys35,Lys36]GLP-1-(7-36) amide] (H-H[Aib]EGTFTSDVSSYLEEQAVREFIAK([AEEA-AEEA-γGlu-C18 diacid])LVKKK-NH2) | – | 400 to 800
CC[C@H](C)[C@H](NC(=O)[C@H](Cc1ccccc1)NC(=O)[C@H](CCC(=O)O)NC(=O)[C@H](CCCNC(=N)N)NC(=O)[C@@H](NC(=O)[C@H](C)NC(=O)[C@H](CCC(N)=O)NC(=O)[C@H](CCC(=O)O)NC(=O)[C@H](CCC(=O)O)NC(=O)[C@H](CC(C)C)NC(=O)[C@H](Cc1ccc(O)cc1)NC(=O)[C@H](CO)NC(=O)[C@H](CO)NC(=O)[C@@H](NC(=O)[C@H](CC(=O)O)NC(=O)[C@H](CO)NC(=O)[C@@H](NC(=O)[C@H](Cc1ccccc1)NC(=O)[C@@H](NC(=O)CNC(=O)[C@H](CCC(=O)O)NC(=O)C(C)(C)NC(=O)[C@@H](N)Cc1c[nH]cn1)[C@@H](C)O)[C@@H](C)O)C(C)C)C(C)C)C(=O)N[C@@H](C)C(=O)N[C@@H](CCCCNC(=O)COCCOCCNC(=O)COCCOCCNC(=O)CC[C@H](NC(=O)CCCCCCCCCCCCCCCCC(=O)O)C(=O)O)C(=O)N[C@@H](CC(C)C)C(=O)N[C@H](C(=O)N[C@@H](CNC(=O)CN(CC(=O)O)CC(=O)O)C(N)=O)C(C)C [Example 37, N-epsilon31-{2-(2-{2-[2-(2-{2-[4-Carboxy-4-(17-carboxy-heptadecanoylamino)butyrylamino]ethoxy}ethoxy)acetylamino]ethoxy}ethoxy)acetyl}-N-beta34-(2-(bis-carboxymethylamino)acetyl)[Aib8,Glu22,Val25,Arg26,Lys31, Dap34] GLP-1(7-34) amide] (H-H[Aib]EGTFTSDVSSYLEEQAVREFIAK([AEEA-AEEA-γGlu-C18 diacid])LV[Dap](NTA)-NH2) | – | 150 to 200
